US10959968B2, “Methods for treating c-Met-dependent cancers” (Board of Supervisors of Louisiana State University and …, priority 2016, dated 2021)

What was measured:
[1] = tested on: MDA-MB-231, MDA-MB-468, MCF-7 and BT-474 cells; experiment: Growth of breast cancer cells without HGF, MTT assay; format: cell-based, human; details: similar treatment doses; no HGF
Method: FIG. 3. (A) Effect of HVS treatment on HGF-stimulated growth of Met-dependent MDA-MB-231, MDA-MB-468, MCF-7. and BT-474 breast cancer cells after 72 h treatment period, compared to DMSO as vehicle control. Viable cell count was determined using MTT assay. Vertical bars indicate the mean cell count±SEM of N=3 in each treatment group; (−)-oleocanthal was used as a positive control at 20 μM. (B) Effect of HVS treatment on HGF-stimulated growth of Met-independent T-47D breast cancer cells after 72 h treatment period. Viable cell count was determined using MTT assay. Vertical bars indicate the mean cell count±SEM of N=3 in each treatment group. (C) Cytotoxic effects of HVS on the highly metastatic MDA-MB-231 breast cancer cells at two different concentrations (30 and 60 μM) using LDH cytotoxicity assay. Triton X-100 was used as a positive control to cause the breakdown of all the cells and induce the total possible LDH release. (D) Effects of HVS treatment on the viability of non-tumorigenic human MCF10A mammary epithelial cells after a 24 h treatment period, compared to DMSO as vehicle control. (E) As in panel (A) but without HGF. […] Viable cell count was determined using MTT assay. Vertical bars indicate the mean cell count±SEM of N=3 in each treatment group; doxorubicin was used as a positive control at 10 μM dose. *P<0.05 as compared with vehicle treated control.
[…]. […]

[2] = tested on: DU145 human prostate cancer cells (pMet, pAkt, pErk); experiment: Western blot of HGF-induced signaling in prostate cancer cells; format: cell-based; details: 30 min pretreatment, 30 min HGF
Method: FIG. 4. A) Effect of HVS treatment on HGF-induced c-Met activation in human breast cancer cells using Western Blot analysis. Treatment with HVS caused a significant, dose-responsive inhibition of HGF-induced c-Met phosphorylation in MDA-MB-231, MCF-7, and BT-474 mammary tumor cells with no effect on total c-Met levels after treatment for 72 h, as compared to their respective vehicle-treated control groups. The visualization of β-tubulin was used as a loading control. (B) Effect of HVS on HGF-induced c-Met activation and its downstream mitogenic signaling in DU145 human prostate cancer cells, as compared to vehicle-treated control group, using Western Blot analysis. Cells were pre-treated for 30 minutes with either HVS at 0.1, 0.3, 1, and 5 μM or (−)-oleocanthal at 5, 10, and 20 μM doses in serum-free 0.4-media. 33 ng/mL HGF was then added for 30 minutes. Whole cell lysates were collected and assayed by Western Blot. The visualization of α-tubulin was used as a loading control. Representative Western Blots from each experiment are shown, N=3.
DU145 prostate tumor cells were pretreated for 30 minutes with the indicated compounds. Following pretreatment, cells were pulsed for thirty minutes with HGF, cell lysates were prepared and western blot analysis was performed to identify pMet, pAkt, pErk and tubulin.

[3] = tested on: MDA-MB-231 human breast cancer cells; experiment: Cultrex BME cell invasion assay, HGF-induced; format: cell-based; details: 24 h treatment
Method: FIG. 6. (A) Effect of HVS on HGF-induced migration of the highly metastatic MDA-MB-231 human breast cancer cells in wound healing assay. […] Vertical bars indicate the percentage of wound closure at 24 h after wounding, calculated relative to the wound distance at zero time±SEM of N=6 in each treatment group. SU11274 and (−)-oleocanthal were used as positive controls at 10 μM. Right panel represents photomicrographs of wound healing assay showing HVS treatment at three different concentrations (1.25, 2.5, and 5 μM) blocked the migration of MDA-MB-231 cells in response to HGF stimulation, as compared to DMSO as a vehicle control. (B) Effect of HVS on HGF-induced cell invasion of the highly aggressive MDA-MB-231 human breast cancer cells using Cultrex® BME cell invasion assay. The cells were treated with different concentrations of HVS for 24 h. Vertical bars indicate the percentage of cells invading the basement membrane at the end of treatment period±SEM of N=3 in each treatment group. (−)-Oleocanthal was used as a positive control at 20 μM dose.*P<0.05 as compared with vehicle-treated control. (C) Effect of HVS on HGF-induced scattering of the DU145 human prostate cancer cells in 2D monolayer cultures, compared to DMSO as vehicle control. Cells were treated with indicated concentrations of HVS for 30 minutes in serum-free media. […]

[4] = biological target: ABL1 (Homo sapiens, UniProt P00519); experiment: SelectScreen Kinase Profiling; format: biochemical; details: read-out: Mean inhibition at 10 μM of HVS (%)
Sequence of ABL1 (P00519 whole entry): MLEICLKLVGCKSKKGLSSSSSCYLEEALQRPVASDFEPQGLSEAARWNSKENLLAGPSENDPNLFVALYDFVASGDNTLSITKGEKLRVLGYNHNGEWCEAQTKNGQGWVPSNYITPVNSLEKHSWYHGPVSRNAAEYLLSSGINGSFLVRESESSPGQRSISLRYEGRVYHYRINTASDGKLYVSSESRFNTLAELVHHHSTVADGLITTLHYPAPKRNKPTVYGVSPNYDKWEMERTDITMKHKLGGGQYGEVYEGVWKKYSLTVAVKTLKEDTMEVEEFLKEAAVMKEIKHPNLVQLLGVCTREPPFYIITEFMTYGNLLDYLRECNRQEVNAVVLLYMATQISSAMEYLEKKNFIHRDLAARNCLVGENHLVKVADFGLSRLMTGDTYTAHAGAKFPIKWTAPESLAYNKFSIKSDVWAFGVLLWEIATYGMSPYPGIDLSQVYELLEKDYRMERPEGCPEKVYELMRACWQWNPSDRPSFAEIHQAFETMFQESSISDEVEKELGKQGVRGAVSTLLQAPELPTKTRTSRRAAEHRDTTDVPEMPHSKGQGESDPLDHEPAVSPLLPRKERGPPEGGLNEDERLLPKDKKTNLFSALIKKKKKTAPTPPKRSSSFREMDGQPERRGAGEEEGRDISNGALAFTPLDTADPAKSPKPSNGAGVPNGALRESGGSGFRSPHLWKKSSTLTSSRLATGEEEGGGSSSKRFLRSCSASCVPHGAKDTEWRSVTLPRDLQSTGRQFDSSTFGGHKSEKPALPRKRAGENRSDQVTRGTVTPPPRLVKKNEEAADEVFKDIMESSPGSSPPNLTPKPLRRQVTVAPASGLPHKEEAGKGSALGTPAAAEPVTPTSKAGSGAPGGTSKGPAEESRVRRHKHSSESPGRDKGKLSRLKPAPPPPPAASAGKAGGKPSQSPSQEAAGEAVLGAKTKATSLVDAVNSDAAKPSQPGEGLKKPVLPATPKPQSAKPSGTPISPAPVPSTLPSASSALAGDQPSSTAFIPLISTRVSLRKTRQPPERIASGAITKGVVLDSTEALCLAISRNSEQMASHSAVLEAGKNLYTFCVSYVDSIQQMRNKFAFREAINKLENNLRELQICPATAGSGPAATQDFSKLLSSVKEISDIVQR

[5] = biological target: MST1R (RON0 (Homo sapiens, UniProt Q04912)); experiment: SelectScreen Kinase Profiling; format: biochemical; details: read-out: Mean inhibition at 10 μM of HVS (%)
Sequence of MST1R (RON0 (Q04912 25-1400): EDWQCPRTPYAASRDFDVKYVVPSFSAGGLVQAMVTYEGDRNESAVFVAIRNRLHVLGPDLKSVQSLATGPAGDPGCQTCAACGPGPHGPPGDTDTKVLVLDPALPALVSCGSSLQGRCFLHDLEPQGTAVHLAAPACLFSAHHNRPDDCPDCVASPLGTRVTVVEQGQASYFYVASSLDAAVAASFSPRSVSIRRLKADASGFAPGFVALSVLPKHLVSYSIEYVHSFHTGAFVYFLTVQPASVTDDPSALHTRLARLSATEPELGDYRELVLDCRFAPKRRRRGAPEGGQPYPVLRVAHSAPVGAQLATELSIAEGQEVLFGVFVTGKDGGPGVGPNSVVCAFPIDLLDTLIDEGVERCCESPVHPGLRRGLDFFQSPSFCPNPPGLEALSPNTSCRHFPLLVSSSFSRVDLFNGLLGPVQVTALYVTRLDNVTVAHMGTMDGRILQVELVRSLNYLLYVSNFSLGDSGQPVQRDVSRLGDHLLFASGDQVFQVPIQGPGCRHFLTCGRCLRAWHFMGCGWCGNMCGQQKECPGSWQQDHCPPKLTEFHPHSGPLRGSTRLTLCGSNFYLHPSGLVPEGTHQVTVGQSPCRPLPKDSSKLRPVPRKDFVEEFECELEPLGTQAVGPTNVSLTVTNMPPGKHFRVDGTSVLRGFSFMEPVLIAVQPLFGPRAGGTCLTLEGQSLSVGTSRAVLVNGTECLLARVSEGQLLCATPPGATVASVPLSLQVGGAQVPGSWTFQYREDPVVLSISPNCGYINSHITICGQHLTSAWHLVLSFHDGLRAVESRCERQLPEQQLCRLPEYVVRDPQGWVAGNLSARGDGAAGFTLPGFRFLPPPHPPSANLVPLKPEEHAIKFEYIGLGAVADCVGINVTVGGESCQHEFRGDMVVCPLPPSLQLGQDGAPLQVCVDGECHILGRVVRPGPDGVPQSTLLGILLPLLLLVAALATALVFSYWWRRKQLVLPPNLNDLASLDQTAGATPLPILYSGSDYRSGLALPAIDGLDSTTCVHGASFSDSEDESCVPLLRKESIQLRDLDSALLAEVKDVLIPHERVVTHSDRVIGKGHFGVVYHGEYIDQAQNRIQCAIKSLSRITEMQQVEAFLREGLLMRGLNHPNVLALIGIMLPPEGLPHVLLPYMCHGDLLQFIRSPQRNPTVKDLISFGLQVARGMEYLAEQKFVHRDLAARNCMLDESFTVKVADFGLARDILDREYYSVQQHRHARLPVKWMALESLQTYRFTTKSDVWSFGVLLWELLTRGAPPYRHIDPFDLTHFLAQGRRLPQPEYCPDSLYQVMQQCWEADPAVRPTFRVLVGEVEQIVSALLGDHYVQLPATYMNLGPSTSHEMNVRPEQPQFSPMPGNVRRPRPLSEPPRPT

Question: Which “effect on growth in the absence of HGF” value [1] does the source give for `COc1cc(CCOC(=O)/C=C/c2cc(OC)c(O)c(OC)c2)ccc1O` [Compound 8, (E)-4-hydroxy-3-methoxyph-ethyl 3-(4-hydroxy-3,5-dimethoxyphenyl) acrylate] here?
Answer: Its value is “no discernable effects”.

Question: And the “HGF-induced (Met dependent) signaling” value [2]?
Answer: The value was “effective even at submicromolar concentrations”.

Question: What about the HGF-induced invasion [3] of the same compound?
Answer: The HGF-induced invasion was “appears to inhibit”.

Question: What about the inhibition at 10 µM [4] of the same compound?
Answer: Its inhibition at 10 µM is 79%.

Question: And the inhibition at 10 µM [5]?
Answer: The inhibition at 10 µM was 15%.
